Marks after values point to notes of the source that are not given here.
How the values were obtained:
[1] = test system: rat liver microsomes; assay type: biochemical; set-up: key: Positive: the development of coloration denoted a positive response; Negative: the absence of such coloration denoted a negative response
[2] = test system: Salmonella typhimurium; conditions: cited from earlier work
[3] = in vivo; cited from earlier work
[4] = in vivo; cited from earlier work; remark: listed apart in the source
[5] = test system: rat liver microsomes; assay type: biochemical; set-up: unit not given here
[6] = test system: rat liver microsomes; assay: Color development in detection elements with different leuco dyes (Table 2); assay type: biochemical; conditions: applied dose 10 μmol (formaldehyde 1 μmol); for New Color Development, NBTZ: unexposed control also Black
Description: Solutions containing 0.5 mM of the respective dyes in 0.1 M TRIS buffer, pH=7.4 (except for nitro blue tetrazolium, 5.0 mM in 50% ethanolic TRIS, pH=7.4) were bleached with a few crystals of sodium sulfite or sodium dithionite, then plied in 0.02 mL aliquots as test spots on a clear sheet of transparency film. Spontaneous color development in air was noted (Table 2). Subsequently, a suspension of rat liver microsomes containing 1 mM NADPH and 1 mg/mL gelatin in 0.1 M TRIS-MOPS buffer (pH=7.7) was plied in 0.05 mL aliquots over the dried leuco-dye test spots. After drying, color development condition was noted, and the test spots saved for exposure tests to chemical substances (Table 2). Exposures were carried out by layering 0.01 mL of 0.1-1.0 M solutions of test chemical substances onto the test spots, and changes in color noted over time.

[7] = Direct reaction of chemicals with the indicator leuco dye; conditions: without metabolic activation
[8] = cited from earlier work; for E1/2: literature (Kemula and Axt); for Em7: midpoint redox potential

## CC(=O)O [Acetate]
[1]
  Invention Response: Negative
[2]
  Mutagenicity: -
[3]
  Carcinogenic Status: Negative
  Tumorigen Activity: -
[4]
  Teratogen Activity: -

## Nc1ccccc1 [Aniline]
[5]
  Detector Response, threshold dose: 5
[1]
  Invention Response: Positive
[2]
  Mutagenicity: +
[3]
  Carcinogenic Status: Possible
  Tumorigen Activity: +^e
[4]
  Teratogen Activity: -

## CC(Cl)(Cl)Cl [CH3 CCl3]
[6]
  New Color Development, Methyl Green leuco dye: None
  New Color Development, Methyl Violet leuco dye: None^a,b
  New Color Development, Naphthol Blue-Black leuco dye: None
  New Color Development, Nile Blue A leuco dye: None
  New Color Development, Safranin O leuco dye: None
  New Color Development, NBTZ: Black

## ClC1=C(Cl)C2(Cl)C3C(Cl)C(Cl)CC3C1(Cl)C2(Cl)Cl (stereo not shown) [Chlordane]
[1]
  Invention Response: Positive
[3]
  Carcinogenic Status: Positive

## O=c1ccc2ccccc2o1 [Coumarin]
[1]
  Invention Response: Positive
[3]
  Carcinogenic Status: Positive

## CN(C)C(=O)Nc1ccc(Cl)c(Cl)c1 [DCMU, 3(3,4-Dichlorophenyl)-1,1,dimethylurea]
[1]
  Invention Response: Positive
[3]
  Carcinogenic Status: Teratogen only
  Tumorigen Activity: +^e
[4]
  Teratogen Activity: +

## CC(C)[C@@H](C)/C=C/[C@@H](C)[C@H]1CC[C@H]2C3=CC=C4C[C@@H](O)CC[C@]4(C)[C@H]3CC[C@]12C [Ergosterol]
[5]
  Detector Response, threshold dose: 0.1
[6]
  New Color Development, Methyl Green leuco dye: Green
  New Color Development, Methyl Violet leuco dye: Violet
  New Color Development, Naphthol Blue-Black leuco dye: None
  New Color Development, Nile Blue A leuco dye: Blue
  New Color Development, Safranin O leuco dye: Pink
  New Color Development, NBTZ: Black
[2]
  Mutagenicity: -
[3]
  Tumorigen Activity: -
[4]
  Teratogen Activity: +

## O=C(O)CNCP(=O)(O)O [Glyphosate (ind.), Glyphosate]
[5]
  Detector Response, threshold dose: 0.3
[2]
  Mutagenicity: -
[3]
  Tumorigen Activity: -
[4]
  Teratogen Activity: -

## OO [H2 O2]
[5]
  Detector Response, threshold dose: 1-2
[7]
  Direct reaction with the indicator leuco dye: react directly with the indicator dye
[2]
  Mutagenicity: +
[3]
  Tumorigen Activity, assignment based on IARC reports: +
[4]
  Teratogen Activity: -

## C[C@]12CCC(=O)C=C1CC[C@@H]1[C@@H]2[C@@H](O)C[C@@]2(C)[C@H]1CC[C@]2(O)C(=O)CO [Hydrocortisone]
[5]
  Detector Response, threshold dose: 0.1
[2]
  Mutagenicity: -
[3]
  Tumorigen Activity: -
[4]
  Teratogen Activity: +

## O=C(O)CI [ICH2 COOH, iodoacetic acid]
[6]
  New Color Development, Methyl Green leuco dye: Green
  New Color Development, Methyl Violet leuco dye: Purple
  New Color Development, Naphthol Blue-Black leuco dye: None
  New Color Development, Safranin O leuco dye: None
  New Color Development, NBTZ: Black
[7]
  Direct reaction with the indicator leuco dye: react with the leuco dye to give colored products
[7]; listed as iodoacetate
  Direct reaction with the indicator leuco dye: react directly with the indicator dye

## [La+3] [Lanthanum(III)]
[5]
  Detector Response, threshold dose: 5
[2]
  Mutagenicity: -
[3]
  Tumorigen Activity: -
[4]
  Teratogen Activity: -

## Cl[C@H]1[C@H](Cl)[C@@H](Cl)[C@@H](Cl)[C@H](Cl)[C@H]1Cl [Lindane (USP), Lindane]
[5]
  Detector Response, threshold dose: 0.2
[2]
  Mutagenicity: -
[3]
  Tumorigen Activity: +
[4]
  Teratogen Activity: +

## CCOC(=O)CC(SP(=S)(OC)OC)C(=O)OCC (stereo not shown) [Malathion (ind.), Malathion]
[5]
  Detector Response, threshold dose: 0.1
[2]
  Mutagenicity: -
  Mutagenicity, direct-acting mutagen: +
[3]
  Tumorigen Activity: -
[4]
  Teratogen Activity: +

## [Mn+2] [Manganese(II)]
[5]
  Detector Response, threshold dose: 5
[2]
  Mutagenicity: -
[3]
  Tumorigen Activity: +
[4]
  Teratogen Activity: +

## CC1=CC(=O)c2ccccc2C1=O [Menadione]
[5]
  Detector Response, threshold dose: 0.01
[1]
  Invention Response: Positive
[6]
  New Color Development, Methyl Green leuco dye: None
  New Color Development, Methyl Violet leuco dye: None^a,b
  New Color Development, Naphthol Blue-Black leuco dye: None^b
  New Color Development, Nile Blue A leuco dye: None^b
  New Color Development, Safranin O leuco dye: None
  New Color Development, NBTZ: Black
[2]
  Mutagenicity: +
[3]
  Carcinogenic Status: Possible
  Tumorigen Activity: +^e
[4]
  Teratogen Activity: +

## CN(C)c1ccc(C(=C2C=CC(=[N+](C)C)C=C2)c2ccc([N+](C)(C)C)cc2)cc1.[Cl-].[Cl-] [Methyl Green, methyl green]
[8]
  E1/2: approximately -0.55 V

## CN(C)c1ccc2nc3ccc(=[N+](C)C)cc-3sc2c1 [Methylene Blue (USP), Methylene Blue]
[8]
  Em7: +0.01 V
[2]
  Mutagenicity: +
[3]
  Tumorigen Activity: -
[4]
  Teratogen Activity: -

## C=CC(=O)NCNC(=O)C=C [Methylene(bis)acrylamide, Methylene(bis)-acrylamide]
[5]
  Detector Response, threshold dose: < 2
[2]
  Mutagenicity: -
[3]
  Tumorigen Activity: -
[4]
  Teratogen Activity: -

## Cc1cc(O)ccc1O [Methylhydroquinone]
[5]
  Detector Response, threshold dose: 30
[2]
  Mutagenicity: -
[3]
  Tumorigen Activity: -
[4]
  Teratogen Activity: -

## O=N[O-].[Na+] [NaNO2]
[5]
  Detector Response, threshold dose: 0.1
[2]
  Mutagenicity: +
[3]
  Tumorigen Activity: +
[4]
  Teratogen Activity: +

## c1ccc(-c2cnc(-c3ccc(-c4ncc(-c5ccccc5)o4)cc3)o2)cc1 [POPOP]
[1]
  Invention Response: Negative
[3]
  Carcinogenic Status: Negative

## Nc1c(Cl)c(Cl)nc(C(=O)O)c1Cl [Picloram (ind.), Picloram]
[5]
  Detector Response, threshold dose: 0.01
[2]
  Mutagenicity: -
[3]
  Tumorigen Activity, assignment based on NCI/NTP carcinogenesis bioassay results: +
[4]
  Teratogen Activity: +

## O=C1C=CC(=O)C=C1.Oc1ccc(O)cc1 [Quinhydrone]
[5]
  Detector Response, threshold dose: 0.1-0.2
[2]
  Mutagenicity: -
[3]
  Tumorigen Activity: +^e
[4]
  Teratogen Activity: -

## Cc1cc2nc3cc(C)c(N)cc3[n+](-c3ccccc3)c2cc1N.[Cl-] [Safranin O]
[8]
  Em7: -0.28 V

## C=Cc1ccccc1 [Styrene]
[1]
  Invention Response: Negative
[3]
  Carcinogenic Status: Negative

## OC[C@H]1O[C@@](CO)(O[C@H]2O[C@H](CO)[C@@H](O)[C@H](O)[C@H]2O)[C@@H](O)[C@@H]1O [Sucrose]
[1]
  Invention Response: Negative
[3]
  Carcinogenic Status: Negative

## Cc1cccc(O)c1 [m-Cresol]
[5]
  Detector Response, threshold dose: 2
[2]
  Mutagenicity: -
[3]
  Tumorigen Activity: -
[4]
  Teratogen Activity: -

## CN(C)c1ccc(C(=C2C=CC(=[N+](C)C)C=C2)c2ccccc2)cc1 [malachite green]
[8]
  E1/2: -0.55 V

## O=S([O-])S(=O)[O-].[Na+].[Na+] [sodium dithionite]
[8]
  Em7: < -0.5 V

## Copper(II)
[5]
  Detector Response, threshold dose: 5
[2]
  Mutagenicity: -
[3]
  Tumorigen Activity: +/-
[4]
  Teratogen Activity: +

## Cr(VI)
[5]
  Detector Response, threshold dose: 0.1
[2]
  Mutagenicity: +
[3]
  Tumorigen Activity: +^e
[4]
  Teratogen Activity: -

## Nile Blue A
[8]
  Em7: -0.12 V

## dichromate
[7]
  Direct reaction with the indicator leuco dye: react directly with the indicator dye

## methyl violet
[8]
  E1/2: approximately -0.75 V

Reference: patent US5413915A (priority 1991, dated 1995)
